In patent publication US20240239787A1, “COMPOUNDS FOR USE IN THE TREATMENT OF CANCER” (Nanyang Technological University, priority 2021, published 2024):

Assays:
[1] = test system: CA9; assay: CA9 level in hypoxic Hela cells (Western blot); assay type: cell-based, human
Experimental: HeLa, Hek293T, MDA-MB-231, 4T1 or B16F10 cells (1.5×10^6 cells/mL) were treated with J266 (10 μM) for 6 h before incubating with JQ1-CBT at the indicated concentrations and time. This entire incubation was performed in normoxia condition. For NTR-moiety caged JW4, the cells were treated with JW4 (10 μM) 6 h prior to the addition of JQ1-CBT for a subsequent 12 h, and was performed entirely under hypoxic condition. Comparison of the downstream effect between the controls and drug-treated cells were completely executed in hypoxic condition. To work up, the cells were washed with cold PBS (pH 7.4) twice, and lysed with RIPA buffer supplemented with protease inhibitor cocktail and phosphatase inhibitor cocktail for 10 min at 4° C. Then, the lysed cells were collected and centrifuged at 13,500 rpm for 20 min at 4° C. The supernatant was collected and the protein concentration was analyzed by NanoDrop™ 2000/2000c Spectrophotometers. The lysate volumes were fine-tuned and loaded onto a Mini-PROTEAN® TGX™ 4-20% Precast Gel and was separated by SDS-PAGE. Then, the gel was transferred onto a PVDF membrane (100 V, 90 min, 4° C.), washed with TBS-T twice, and blocked with 1% BSA for 1 h at r.t. Next, the membrane was incubated with primary antibody overnight at 4° C., washed thrice with TBS-T, followed by incubation with goat anti-rabbit IgG (H+L) Secondary Antibody, HRP for 1 h. […]

[2] = test system: zebrafish larvae; assay: Vascularization of vhl mutant and wide type zebrafish larvae (confocal imaging); assay type: in vivo; settings: vhl^hu2117 crosses, 10 μM; non-treatment approximately one quarter
Experimental: Vasculature zebrafishes were obtained from natural crosses of the AB wild-type strain or vhl^+/hu2117 carriers on the fli1a:egfp^y1 transgenic background (which fluorescently marks the vasculature). JW4 and JQ1-CBT were dissolved in DMSO and the mixture was applied to embryos at equimolar concentration of 10 μM, with J252 (10 μM) and JQ1 (10 μM) used for the control experiments. […] The vascular plexus was imaged on a Zeiss LSM800 confocal microscope. Green: blood vessel tracker, .ex: 488 nm, .em: 520/30 nm; red: . ex: 564 nm, .em: 610/30 nm.

[3] = test system: B16F10 mouse melanoma; assay: Antitumour efficacy in B16F10 tumour bearing C57BL/6J mice; assay type: in vivo; settings: daily treatment, 5 days, vs vehicle
[4] = test system: HIF-1α; assay: HIF-1α level in hypoxic Hela cells (immunofluorescence imaging, Western blot); assay type: cell-based, human
Experimental: HeLa, Hek293T, MDA-MB-231, 4T1 or B16F10 cells (1.5×10^6 cells/mL) were treated with J266 (10 μM) for 6 h before incubating with JQ1-CBT at the indicated concentrations and time. This entire incubation was performed in normoxia condition. For NTR-moiety caged JW4, the cells were treated with JW4 (10 μM) 6 h prior to the addition of JQ1-CBT for a subsequent 12 h, and was performed entirely under hypoxic condition. Comparison of the downstream effect between the controls and drug-treated cells were completely executed in hypoxic condition. To work up, the cells were washed with cold PBS (pH 7.4) twice, and lysed with RIPA buffer supplemented with protease inhibitor cocktail and phosphatase inhibitor cocktail for 10 min at 4° C. Then, the lysed cells were collected and centrifuged at 13,500 rpm for 20 min at 4° C. The supernatant was collected and the protein concentration was analyzed by NanoDrop™ 2000/2000c Spectrophotometers. The lysate volumes were fine-tuned and loaded onto a Mini-PROTEAN® TGX™ 4-20% Precast Gel and was separated by SDS-PAGE. Then, the gel was transferred onto a PVDF membrane (100 V, 90 min, 4° C.), washed with TBS-T twice, and blocked with 1% BSA for 1 h at r.t. Next, the membrane was incubated with primary antibody overnight at 4° C., washed thrice with TBS-T, followed by incubation with goat anti-rabbit IgG (H+L) Secondary Antibody, HRP for 1 h. The membrane was supplemented with Radiance Q chemiluminescent ECL substrate and visualized using Amersham™ ImageQuant™ 800 biomolecular imager. B-Tubulin was used as the internal control.
Hela cells were plated at a density of 8×10^4 cells/mL in each well of the eight-well ibidi dishes before experiment. To sustain the hypoxia-induced factor throughout the drug treatment process, drug incubation was performed entirely in hypoxic chamber. […] The fluorescence of the alleviated HIF-1α expression upon drug treatment was visualized with Carl Zeiss LSM 800 microscopes (Hoechst 33258: Ex=405 nm, Em=460/50 nm; Alexa Fluor 488: Ex=488 nm, Em=515/30 nm; Alexa Fluor 594: Ex=561 nm, Em=617/20 nm).

[5] = test system: HIF-1α; assay: HIF-1α level in B16F10 tumour lysates of mice (Western blot); assay type: in vivo, mouse; settings: intratumoral 5 mg/kg every 4 h up to 8 h
Experimental: (§1) B16F10 cells at a density of 2×10^6 cells were injected subcutaneously into the right flank of six- to eight-week-old mice. Once the tumours became palpable, intratumoral injection of the buffer solution as vehicle, JQ1, and JW4 and JQ1-CBT at dosage of 5 mg/kg were performed for every 4 h up to 8 h. The mice were sacrificed and protein extraction were carried out. The protein levels in lysis samples were analysed by western blot by following the protocol in Example 12. Histology and immunofluorescence staining were performed by following the protocol in Example 13. Specifically, the resected tumours were fixed in 4% paraformaldehyde for 48 h, washed with PBS, and gradually transferred to 15% sucrose, followed by 30% sucrose before being embedded in O.C.T. compound. Five-micrometre cryosections of the tumour samples were dehydrated and blocked with a blocking buffer containing 2% BSA, 1% Tween 20, 3% Triton X, and horse serum for an hour before being incubated with primary antibodies, followed by a washing step and then incubation with secondary antibodies. The primary antibodies used were Ki67 and CD31. […] Images were captured using the EVOS M5000 imaging system (Thermo Fischer Scientific, Waltham, MA, USA) and quantified using ImageJ.

[6] = test system: c-Myc; assay: c-Myc level in B16F10 tumour lysates of mice (Western blot); assay type: in vivo, mouse; settings: intratumoral 5 mg/kg every 4 h up to 8 h
Experimental: as §1

[7] = molecular target: T1, BRD4 (Mus musculus, UniProt Q9ESU6); assay: BRD4 level in B16F10 tumour lysates of mice (Western blot); assay type: in vivo; settings: intratumoral 5 mg/kg every 4 h up to 8 h
T1 construct: from tissue; host or cells: B16F10 tumour in C57BL/6J mice, tumour lysate
Excerpt: We further investigated the feasibility of tumour microenvironment-activatable epigenetic BRD4 protein degradation and further validated the potential anti-tumour efficacy of ENCTAC in a C57BL/6J mice model. Typically, we implanted B16F10 mouse melanoma cell line into the right flank of living mice and the solid tumour was monitored to grow until palpable size before undergoing targeted protein disruption and therapeutic studies (FIG. 24a). The living mice bearing tumours were first subject to NTR-Cy7, a reported NTR enzyme responsive probe molecule (Li, Y. et al., J. Am. Chem. Soc. 2015, 137, 6407-[…]), followed by animal imaging scanning.
B16F10 cells at a density of 2×10^6 cells were injected subcutaneously into the right flank of six- to eight-week-old mice. Once the tumours became palpable, intratumoral injection of the buffer solution as vehicle, JQ1, and JW4 and JQ1-CBT at dosage of 5 mg/kg were performed for every 4 h up to 8 h. The mice were sacrificed and protein extraction were carried out. The protein levels in lysis samples were analysed by western blot by following the protocol in Example 12. Histology and immunofluorescence staining were performed by following the protocol in Example 13. […] Images were captured using the EVOS M5000 imaging system (Thermo Fischer Scientific, Waltham, MA, USA) and quantified using ImageJ.

In the case of `Cc1sc2c(c1C)C(c1ccc(Cl)cc1)=N[C@@H](CC(=O)OC(C)(C)C)c1nnc(C)n1-2` [JQ1], the CA9 amount [1] is reported as “partially downgrade”, the vascularized larvae [2] is reported as 21.3% and the “tumour progression (serial volumetric measurement)” value [3] is reported as “reduced tumour growth”. The HIF-1α protein level [4] was “did not alter”, the “HIF-1α protein level in tumour” value [5] was “trivial effect” and the “c-Myc expression in tumour” value [6] was “downgrade c-Myc expression”. For the same compound, the “BRD4 protein level in tumour” value [7] was “trivial effect”.
